Data reported in patent US12168650B2, “Crystalline forms of 3-(5-(2-hydroxy-2-methylpropoxy)-6-methylpyrazin-2-yl)-1H-indole-7-carbonitrile” (NIDO BIOSCIENCES, INC., priority 2022, dated 2024).
“And” between values parts separate entries of the source, which are not always exact repeats. Equal values may be shown once.

What was measured:
[1] = Interconversion of polymorphs (heating, dehydration, humidity, equilibration); assay type: physicochemical
Text: In total, 15 forms were identified to be polymorphs or pseudo-polymorphs of the free form, including seven anhydrates, Forms A, C, H, J, K. L and O; four hydrates, Forms B, F, M and N; and three solvates, Forms D, E and I. In addition, a metastable form, Form G, and an amorphous form were also obtained.
The interconversion relation of polymorphs identified is outlined in FIG. 5.

[2] = Competitive equilibration experiments of anhydrates; settings: at both 25° C. and 50° C.
Method: Relative stability of the anhydrate Forms A, C, H and J was investigated with competitive equilibration experiments.
Relative stability of the anhydrates Forms C, K and L was investigated with competitive equilibration experiments.
To determine relative stability of anhydrates, competitive equilibration experiments were conducted in different solvent systems.
About 2 mg of each anhydrate was added to 0.3-0.4 mL saturated solutions of selected solvents. Obtained suspensions were stirred at 25° C. for 3-10 days, respectively. Solid parts (wet cakes) were isolated by centrifugation filtration and investigated by XRPD.

[3] = tested on: LNCaP cells expressing ARR2PB-FireflyLuc and CMV-RenillaLuc; test: LNCaP ARR2PB-FireflyLuc reporter assay; assay type: cell-based; settings: Homo sapiens, +/−0.5 nM DHT, 48 h at 37° C.
Method: LNCaP cells expressing ARR2PB-FireflyLuc and CMV-RenillaLuc were treated with indicated concentrations of the test compound, enzalutamide (negative control), or DHT (positive control)+/−0.5 nM DHT for 48 h at 37° C. […] signals were read with the ImageXpress Micro Confocal System. Remaining activity (antagonist mode) was calculated as % Remaining Activity=100×[(Readsample−LCave)/(HCave−LCave)] where HC is cells treated with 0.5 nM DHT only and LC is cells treated with 10 uM enzalutamide+0.5 nM DHT. Activation (agonist mode) was calculated as % Activation=100×[(ReadSample−LCave)/(HCave−LCave)] where HC is cells treated with 1 uM DHT and LC is cells treated with DMSO. Dose response curves and IC50 values were calculated using non-linear regression analysis in XLfit.

[4] = Solution state chemical stability; assay type: physicochemical; settings: for Purity: ~10 mg/ml
Method: The solution state chemical stability was carried out in acetone, MEK, and 2-MeTHF solvent systems at 50° C. and 55° C. […] The purity of the compound degraded from 99.43% to 98.27% after 48 h holding at 55° C. in MEK solvent system.
2-MeTHF/n-hep was selected as the potential solvent system for the crystallization. The solution state chemical stability was carried out in 2-MeTHF solvent systems at higher temperature (60° C. and 70° C.).

With `Cc1nc(-c2c[nH]c3c(C#N)cccc23)cnc1OCC(C)(C)O` [Form I, 3-(5-(2-hydroxy-2-methylpropoxy)-6-methylpyrazin-2-yl)-1H-indole-7-carbonitrile] the Form conversion ([1]; after heating to 140° C. by TGA and cooled to room temperature) was “converted to physical mixture of Form C, Form N and an unknown peak”.
For `Cc1nc(-c2c[nH]c3c(C#N)cccc23)cnc1OCC(C)(C)O` [Form A, 3-(5-(2-hydroxy-2-methylpropoxy)-6-methylpyrazin-2-yl)-1H-indole-7-carbonitrile], the “Relative thermodynamic stability of anhydrates” value [2] was “converts to Form C”.
For `Cc1nc(-c2c[nH]c3c(C#N)cccc23)cnc1OCC(C)(C)O` [Form D, 3-(5-(2-hydroxy-2-methylpropoxy)-6-methylpyrazin-2-yl)-1H-indole-7-carbonitrile], the Form conversion ([1]; after desolvation) was “converts to Form C”.
For `Cc1nc(-c2c[nH]c3c(C#N)cccc23)cnc1OCC(C)(C)O` [Form E, 3-(5-(2-hydroxy-2-methylpropoxy)-6-methylpyrazin-2-yl)-1H-indole-7-carbonitrile], the Form conversion ([1]; after heating to 100° C. by TGA and cooled to room temperature) was “converts to physical mixture of Form F and Form G”.
For `Cc1nc(-c2c[nH]c3c(C#N)cccc23)cnc1OCC(C)(C)O` [Form G, 3-(5-(2-hydroxy-2-methylpropoxy)-6-methylpyrazin-2-yl)-1H-indole-7-carbonitrile], the Form conversion ([1]; equilibration in DMSO/water system at 25° C. for 6 days) was “converts to anhydrate Form H”.
`Cc1nc(-c2c[nH]c3c(C#N)cccc23)cnc1OCC(C)(C)O` [3-(5-(2-hydroxy-2-methylpropoxy)-6-methylpyrazin-2-yl)-1H-indole-7-carbonitrile] showed an IC50 [3] of 0.05 µM, a Purity ([4]; 2-MeTHF, 55° C., 0 h) of 99.35% a % and a Purity ([4]; 2-MeTHF, 55° C., 6 h) of 99.55% a %. It also gave a Purity ([4]; 2-MeTHF, 55° C., 24 h) of 99.62% a %, a Purity ([4]; 2-MeTHF, 55° C., 48 h) of 99.62% a % and a Purity ([4]; 2-MeTHF, 60° C., 0 h) of 99.54% a %. The Purity ([4]; 2-MeTHF, 60° C., 24 h) was 99.69% a %, the Purity ([4]; 2-MeTHF, 60° C., 48 h) was 99.56% a % and the Purity ([4]; 2-MeTHF, 70° C., 0 h) was 99.53% a %. It also gave a Purity ([4]; 2-MeTHF, 70° C., 24 h) of 99.70% a %, a Purity ([4]; 2-MeTHF, 70° C., 48 h) of 99.44% a % and a Purity ([4]; 2-MeTHF/n-hep = 1 v/1 v, 70° C., 0 h) of 98.45% a %. It also gave a Purity ([4]; 2-MeTHF/n-hep = 1 v/1 v, 70° C., 24 h) of 98.44% a %, a Purity ([4]; 2-MeTHF/n-hep = 1 v/1 v, 70° C., 48 h) of 98.44% a % and a Purity ([4]; Acetone, 50° C., 0 h) of 99.54% a %. For the same molecule, the Purity ([4]; Acetone, 50° C., 6 h) was 99.50% a %, the Purity ([4]; Acetone, 50° C., 24 h) was 99.51% a % and the Purity ([4]; Acetone, 50° C., 48 h) was 99.69% a %. The Purity ([4]; MEK, 55° C., 0 h) was 99.43 a % and 99.43% a %, the Purity ([4]; MEK, 55° C., 6 h) was 99.23% a % and the Purity ([4]; MEK, 55° C., 24 h) was 98.54% a %. The Purity ([4]; MEK, 55° C., 48 h) was 98.27 a % and 98.27% a %, the “Solution state chemical stability” value ([4]; after 48 h holding in 2-MeTHF at 60° C. and 70° C.) was “stable” and the “Solution state chemical stability” value ([4]; after 48 h holding in 2-MeTHF/n-hep=1v/1v at 70° C.) was “stable”. The “Solution state chemical stability” value ([4]; after 48 h holding in both acetone and 2-MeTHF systems (50° C. and 55° C.)) was “stable”.
For `Cc1nc(-c2c[nH]c3c(C#N)cccc23)cnc1OCC(C)(C)O` [Form B, 3-(5-(2-hydroxy-2-methylpropoxy)-6-methylpyrazin-2-yl)-1H-indole-7-carbonitrile], the Form conversion ([1]; after dehydration) was “converts to Form K”.
In the case of `Cc1nc(-c2c[nH]c3c(C#N)cccc23)cnc1OCC(C)(C)O` [Form M, 3-(5-(2-hydroxy-2-methylpropoxy)-6-methylpyrazin-2-yl)-1H-indole-7-carbonitrile], the Form conversion ([1]; equilibration in MeOH at 25° C. for another 1 day) is reported as “converts to Form B” and the Form conversion ([1]; wet cake from methanol, once exposed to the air) is reported as “converted to Form B”.
In the case of `Cc1nc(-c2c[nH]c3c(C#N)cccc23)cnc1OCC(C)(C)O` [amorphous form, 3-(5-(2-hydroxy-2-methylpropoxy)-6-methylpyrazin-2-yl)-1H-indole-7-carbonitrile], the Form conversion ([1]; after exposure to high humidity) is reported as “crystallized to Form N”.
For `Cc1nc(-c2c[nH]c3c(C#N)cccc23)cnc1OCC(C)(C)O` [Form K, 3-(5-(2-hydroxy-2-methylpropoxy)-6-methylpyrazin-2-yl)-1H-indole-7-carbonitrile], the Form conversion ([1]; after melting and re-crystallization (DSC, VT-XRPD)) was “converts to Form L”, the Form conversion ([1]; exposure to 25° C. in 40-70% RH for 6 days) was “reverts back to Form B” and the Form conversion ([1]; exposure to 25° C./92% RH for 6 days) was “converts to hydrate Form B”.
